In publication PMC11788587, “Validating Low‐Dose Iohexol as a Marker for Glomerular Filtration Rate by In Vitro and In Vivo Studies” (Clinical and Translational Science, 2025):

Assays:
hOAT3 = molecular target: T1, hOAT3 (Homo sapiens, UniProt Q8TCC7); experiment: Inhibition of hOAT3-mediated E3S uptake, stably transfected 293 cells; type: cell-based; conditions: substrate 3 µM E3S, median (95% CI)
T1 construct: expressed in transfected cells; host or cells: HEK-293 (293) cells, pEBTetD plasmid, doxycycline-induced
T1 sequence (Q8TCC7 1-542): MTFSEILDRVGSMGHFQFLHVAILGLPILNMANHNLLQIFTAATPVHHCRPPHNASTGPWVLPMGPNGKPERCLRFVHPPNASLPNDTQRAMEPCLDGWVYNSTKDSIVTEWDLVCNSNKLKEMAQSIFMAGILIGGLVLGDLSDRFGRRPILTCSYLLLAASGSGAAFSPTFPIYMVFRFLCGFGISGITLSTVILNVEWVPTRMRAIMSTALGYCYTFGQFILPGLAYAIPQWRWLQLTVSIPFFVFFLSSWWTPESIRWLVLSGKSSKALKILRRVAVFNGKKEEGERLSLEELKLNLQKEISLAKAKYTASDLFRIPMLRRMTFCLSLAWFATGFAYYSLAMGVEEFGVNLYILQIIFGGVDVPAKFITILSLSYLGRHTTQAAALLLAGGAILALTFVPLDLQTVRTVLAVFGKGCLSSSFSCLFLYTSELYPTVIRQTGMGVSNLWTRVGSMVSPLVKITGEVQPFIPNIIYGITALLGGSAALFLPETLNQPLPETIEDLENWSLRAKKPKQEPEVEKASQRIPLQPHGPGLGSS
Source text: We characterized the inhibitory potential of iohexol on major drug transporters recommended by regulatory agencies, which were previously assessed in a clinical transporter phenotyping cocktail study. These transporters include hOAT1, hOAT3, hOCT1, hOCT2, hMATE1, hMATE2K, human organic anion transporter polypeptides (hOATP)1B1, hOATP1B3, and human multidrug resistance protein (hMDR)1. Additionally, we investigated whether iohexol is a substrate for any of the renal transporters among these, including hOAT1/3, hOCT1/2, and hMATE1/2K. Cell‐based uptake assays were used to assess the activities of hOAT1/3, hOCT1/2, hMATE1/2K, and hOATP1B1/1B3. Inside‐out membrane vesicle uptake assays were used to evaluate the activity of hMDR1.
To determine the maximal inhibitory potential of iohexol, intracellular accumulation of a standard substrate was measured with and without the clinically relevant highest concentrations of iohexol. Control inhibitors were tested in each experiment.
In all subsequent in vitro studies, control experiments were conducted to validate the results. These included positive controls for substrates and inhibitors, as well as cells either without transporter expression or transfected with an empty vector, and control vesicles. Each condition, including cells or vesicles with the transporter and their respective controls, was analyzed in at least three replicates. For detailed information on materials, methods, and data analysis techniques used, refer to the Supporting Information. […]
R version 4.2.1 (R Foundation for Statistical Computing, Vienna, Austria) was used for statistical evaluations and data visualization. The data analysis approach for the in vitro study was detailed by Hsin CH et al..^1 In brief, for transport assays, the initial uptake rate was calculated by normalizing the substrate concentration to both the protein concentration and the incubation time for each dish or well. The transporter-mediated uptake rate (net uptake) was determined by performing an element-wise subtraction of uptake rates from different conditions. […]

[1] = design: method as in PMID 27679715; conditions: cited from earlier work
OCT2 = tested on: OCT2; design: method as in ref 15 Yang et al.; conditions: HK‐2 cells; ref 15 Yang et al.; cited from earlier work
[2] = tested on: human Phase I or Phase II enzymes; design: method as in PMID 32948918; conditions: cited from earlier work

Inhibitory effect (% reduction of specific activity) (hOAT3; 20 mM iohexol): no notable inhibitory effects
inhibition at 1000 µM (hOAT3; HEK293, 1 mM iohexol, read-out: Inhibitory effect (% reduction of specific activity)): -4%
inhibition at 20000 µM (hOAT3; HEK293, 20 mM iohexol, read-out: Inhibitory effect (% reduction of specific activity)): -3.5%
SMILES: CC(=O)N(CC(O)CO)c1c(I)c(C(=O)NCC(O)CO)c(I)c(C(=O)NCC(O)CO)c1I (stereo not drawn) [iohexol]
Plasma protein binding [1]: 1.5%
Expression of OCT2 (OCT2): downregulated
Inhibition of human Phase I or Phase II enzymes [2]: does not inhibit
